# Results published in article PMC11574021, “CEP192 localises mitotic Aurora-A activity by priming its interaction with TPX2” (The EMBO Journal, 2024).
# Key:
# [1] = target: T1, phosphorylated Aurora-A CAKD (Homo sapiens, UniProt O14965, C290A/C393A); experiment: ADP-Glo kinase assay, kemptide substrate; type: biochemical; conditions: ADP-Glo, phosphorylated Aurora-A CAKD, kemptide; in words
# T1 construct: 10 nM Aurora-A 122–403 C290A C393A phosphorylated protein; His (N, cleaved yes); made in house; host or cells: E. coli B834 (no lambda phosphatase)
# T1 sequence (O14965 122-403 C290A/C393A): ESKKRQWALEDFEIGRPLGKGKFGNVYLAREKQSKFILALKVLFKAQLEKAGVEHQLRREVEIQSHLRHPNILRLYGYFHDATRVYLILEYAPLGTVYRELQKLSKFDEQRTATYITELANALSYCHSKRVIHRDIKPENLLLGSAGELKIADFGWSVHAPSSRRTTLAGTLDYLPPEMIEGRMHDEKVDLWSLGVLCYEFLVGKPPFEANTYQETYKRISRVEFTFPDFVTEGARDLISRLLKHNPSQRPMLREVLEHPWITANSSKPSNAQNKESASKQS
# Procedure, shortened: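 Reactions started with 10 μM ATP and 100 μM kemptide, 60 min at room temperature, then ADP-Glo luminescence read-out. Control-subtracted signals from three repeats averaged and fitted to sigmoidal curves for IC50 and EC50.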
# γ-tubulin in RPE1 cells = experiment: Immunofluorescence, γ-tubulin centrosomal signal intensity, RPE1; type: cell-based, Homo sapiens; conditions: RPE1 p53-/-, Aurora-A inhibitor 30 min
# Experimental: As noted in the figures, the following drugs were incubated with cells for 30 min at 37 °C: Aurora-B-i ZM447439 2 µM [10 mM], PLK1-I BI2536 1 µM [10 mM] and Aurora-A-i MLN8237 [5 mM] was used at 250 and 500 nM in U251 and RPE1 cells, respectively. Drugs were resuspended in DMSO to the stock concentrations indicated in square brackets. BI2536 (HY-50698), MLN8237 (HY-10971) and ZM447439 (HY-10128) were all purchased from MedChemExpress. For western blotting, a 20-min pre-treatment with proteasome inhibitor (20 µM MG-132, MerckMillipore, 47490 [20 mM]) was required prior to the addition of DMSO control or kinase inhibitors. This prevented mitotic exit as a consequence of checkpoint override following Aurora-A and Aurora-B inhibitor addition.
# For siRNA depletion, 1 × 10^5 cells were seeded in six-well plates and transfected as described above for 48 h prior to fixation. For all other experiments, 2.5 × 10^5 cells were seeded in six-well plates and grown for 24 h before fixation. All cells were grown on 12 mm diameter glass coverslips (VWR, 631–1577). […]
# For CEP192, LATS2-pS83, PCNT, PLK1 and γ-tubulin intensity, a 20-pixel diameter circle was centred over each centrosome and the intensity measured. […]
smiles,measurement,setting,value
COc1cc(Nc2ncc3c(n2)-c2ccc(Cl)cc2C(c2c(F)cccc2OC)=NC3)ccc1C(=O)O [Alisertib],effect on Aurora-A kinase activity,[1],fully inhibited activity
same,centrosomal γ-tubulin,γ-tubulin in RPE1 cells,significant drop in centrosomal γ-tubulin
